A value given as a limit tells only on which side of the number the result lay.

Assay [1] concerns the target T1, acetylcholinesterase (AChE) from electrophorus electricus (Electrophorus electricus, UniProt O42275).
T1 construct: purchased Sigma-Aldrich
In words: biochemical. The settings on record: for IC50: Ellman's method, 96-well plate, enzyme with compound incubated 20 min at 37 °C, phosphate buffer pH 8.0, three measurements; for Selectivity AChE: ratio of the IC50 values (BuChE/AChE), definition not given. The assay is classed as biochemical. As to the method:
(§1) To determine the inhibitory properties of the tested compounds against acetylcholinesterase and butyrylcholinesterase, Ellman’s method was used. […] For each system, measurements were carried out three times. Dose–response curve functions were fitted to the obtained results.
(§2) The following reagents were used to evaluate the inhibiting activity: acetylcholinesterase (AChE) from electrophorus electricus (Sigma-Aldrich, Saint Louis, MO, USA), butyrylcholinesterase (BuChE) from horse serum, acetylthiocholine iodide (Sigma-Aldrich, Saint Louis, MO, USA), butyrylthiocholine iodide (Sigma-Aldrich, Saint Louis, MO, USA), 5,5′-Dithiobis-(2-nitrobenzoic acid) (DTNB, Sigma-Aldrich, Saint Louis, MO, USA). The enzymes were prepared by dissolving in phosphate buffer, pH = 8.0) with the final concentration 2 U/mL for AChE and 4 U/mL for BuChE. The stock solutions of acetylthiocholine iodide (10^−3 mol/dm^3), butyrylthiocholine iodide (10^−3 mol/dm^3) and DTNB (10^−3 mol/dm^3) were prepared in phosphate buffer. The inhibitory activity of derivatives was evaluated by Ellman’s colorimetric method in a 96-well plate. First, the enzyme solution with the tested compound was incubated for 20 min at 37 °C. Next, acetylthiocholine iodide or butyrylthiocholine iodide and DTNB were added.
Background: Ellman's reagent forms a yellow product with free thiols.

Assay [2] concerns the target T2, butyrylcholinesterase (BuChE) from horse serum (Equus caballus, UniProt P81908).
T2 construct: butyrylcholinesterase (BuChE) from horse serum; from tissue; host or cells: horse serum
Briefly: biochemical. The conditions noted are these: for IC50: Ellman's method, 96-well plate, enzyme with compound incubated 20 min at 37 °C, phosphate buffer pH 8.0, three measurements; for Selectivity BuChE: ratio of the IC50 values (AChE/BuChE), definition not given. On the procedure: as §1, §2

T2 sequence (P81908 whole entry): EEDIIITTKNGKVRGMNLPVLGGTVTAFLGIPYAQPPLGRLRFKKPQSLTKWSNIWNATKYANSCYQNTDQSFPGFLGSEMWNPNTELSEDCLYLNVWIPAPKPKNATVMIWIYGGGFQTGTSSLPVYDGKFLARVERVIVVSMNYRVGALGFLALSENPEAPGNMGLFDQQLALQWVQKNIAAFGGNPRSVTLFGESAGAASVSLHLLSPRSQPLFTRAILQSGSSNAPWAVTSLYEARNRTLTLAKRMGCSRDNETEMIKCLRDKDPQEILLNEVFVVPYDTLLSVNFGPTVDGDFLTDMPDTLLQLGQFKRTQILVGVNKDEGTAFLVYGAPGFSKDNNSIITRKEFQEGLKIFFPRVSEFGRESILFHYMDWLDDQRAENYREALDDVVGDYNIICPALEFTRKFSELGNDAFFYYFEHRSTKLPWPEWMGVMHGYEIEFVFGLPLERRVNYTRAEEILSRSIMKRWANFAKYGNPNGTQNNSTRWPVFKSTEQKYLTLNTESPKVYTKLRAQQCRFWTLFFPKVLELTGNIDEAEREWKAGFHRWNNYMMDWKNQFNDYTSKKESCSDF
T1 sequence (O42275 24-633): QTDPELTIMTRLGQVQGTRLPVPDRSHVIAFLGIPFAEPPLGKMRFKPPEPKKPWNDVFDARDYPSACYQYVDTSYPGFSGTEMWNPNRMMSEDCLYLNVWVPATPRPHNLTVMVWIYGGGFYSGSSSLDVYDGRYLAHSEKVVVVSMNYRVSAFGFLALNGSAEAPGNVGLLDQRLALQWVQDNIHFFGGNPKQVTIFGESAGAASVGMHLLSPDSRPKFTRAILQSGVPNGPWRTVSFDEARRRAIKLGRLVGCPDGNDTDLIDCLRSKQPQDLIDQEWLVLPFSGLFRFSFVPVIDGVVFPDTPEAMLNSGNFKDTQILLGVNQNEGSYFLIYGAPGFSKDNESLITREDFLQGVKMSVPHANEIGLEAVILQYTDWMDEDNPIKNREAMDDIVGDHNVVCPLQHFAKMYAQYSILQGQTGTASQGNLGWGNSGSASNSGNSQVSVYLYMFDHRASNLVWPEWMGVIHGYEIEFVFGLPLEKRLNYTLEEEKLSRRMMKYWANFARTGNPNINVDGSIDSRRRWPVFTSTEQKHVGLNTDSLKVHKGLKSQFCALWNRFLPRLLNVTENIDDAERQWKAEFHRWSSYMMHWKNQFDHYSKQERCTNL

Turning to `O=C1c2ccccc2C(=O)N1CCN1CCN(c2ccccc2)CC1` [Compound I, N-[2-(4-phenyl-1-piperazinyl)ethyl]-1H-isoindole-1,3(2H)-dione], in assay [1], the IC50 is 1.12 ± 0.3 µM and the “Selectivity AChE” value is 22.02. Also, in assay [2], the IC50 was determined as 24.7 ± 1.74 µM and the “Selectivity BuChE” value is recorded as 0.05.
Regarding `O=C1c2ccccc2C(=O)N1CCN1CCOCC1` [Compound V, N-(2-morpholine)ethyl-1H-isoindole-1,3(2H)-dione], the 50% inhibitory concentration (IC50) is 16.2 ± 2.37 µM in assay [1] and greater than 1000 µM in assay [2].
With `O=C1c2ccccc2C(=O)N1CCN1CCN(C(c2ccccc2)c2ccccc2)CC1` [III, N-{2-[4-(4-diphenylomethylo)-1-piperazinyl]ethyl}-1H-isoindole-1,3(2H)-dione], in assay [1], the concentration for half-maximal inhibition (IC50) was 1.94 ± 0.43 µM and the “Selectivity AChE” value is reported as 10.95. In addition, in assay [2], the IC50 is 21.2 ± 4.84 µM and the “Selectivity BuChE” value was 0.09.
Taken in the same sequence, the figures for `O=C1c2ccccc2C(=O)N1CCN1CCN(c2ccc(C(F)(F)F)cc2)CC1` [II, N-{2-[4-(4-trifluoromethylphenyl)-1-piperazinyl]ethyl}-1H-isoindole-1,3(2H)-dione] were 2.31 ± 0.36 µM, 10.70, 24.7 ± 3.78 µM and 0.09.
Turning to `O=C1c2ccccc2C(=O)N1CCN1CCc2ccccc2C1` [Compound VI], in assay [1], the IC50 worked out at 1.14 ± 0.17 µM and the “Selectivity AChE” value is 45.71. Moreover, in assay [2], the half-inhibitory concentration (IC50) came to 52.1 ± 9.73 µM and the “Selectivity BuChE” value is 0.02.
For the compound `O=C1c2ccccc2C(=O)N1CCN1CCN(c2ncccn2)CC1` [IV], in assay [1], the 50% inhibitory concentration (IC50) turned out to be 3.9 ± 0.43 µM and the “Selectivity AChE” value amounted to 17.66. The “AChE inhibitory activity compared to derivative I” value in assay [1] (compared to the derivative with a benzene ring (I)) is “about four-times less activity”. Further, in assay [2], the IC50 worked out at 68.9 ± 7.82 µM and the “Selectivity BuChE” value worked out at 0.06.

What is called IC50 is the concentration needed to halve the response being measured.

(Values after paper PMC11313788, “A Series of Novel 1-H-isoindole-1,3(2H)-dione Derivatives as Acetylcholinesterase and Butyrylcholinesterase Inhibitors: In Silico, Synthesis and In Vitro Studies” (Molecules, 2024).)
